Test results as given in PubChem BioAssay AID179 (DTP/NCI, 2004).
Calls of active or inactive are those of the source.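 How the source made its calls: active means compounds giving half or more protection of infected cells from virus-caused growth loss, again on retest; inactive means the rest.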

Tested on: CEM cells HIV-1 protection, formazan growth assay
Assay: NCI AIDS Antiviral Assay
Details: for IC50: measured here: growth of uninfected CEM cells
In short: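 Protection of CEM cells against HIV-1 measured as cell growth via soluble formazan read-out, with five concentrations tested on both infected and uninfected cells; failure to protect may reflect toxicity.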

Structure (SMILES) | EC50 | IC50 | outcome
C=CCN1CN(c2ccccc2)C2(CCN(CCCC3(c4ccc(F)cc4)OCCO3)CC2)C1=O | > 200 µM | 11.5 µM | 
COc1ccc(N=Nc2c(N)nn3cc4c(nc23)-c2ccccc2C4)cc1 | > 200 µM |  | 
CCOC(=O)C(C)NC(=O)C(C)NC(=O)C(C)NC(=O)C(C)NC(=O)C(C)NC(=O)OCc1ccccc1 (stereo unspecified) | > 200 µM | > 200 µM | 
S=c1nc2[nH]c3ccccc3c2n[nH]1 | > 200 µM | > 200 µM | 
COC1=CC(=O)c2ccc(C(C)C)cc2C1(C)C1=NC(C)(C)CO1 (stereo unspecified) | > 151 µM | > 151 µM | 
NC(=O)CNC(=O)c1ccccc1SC(=O)CCCCC[n+]1ccccc1 | 1.41 µM | 38 µM | 
Cc1nc2nc[nH]n2c1N=Nc1ccccc1 | > 200 µM | > 200 µM | 
COc1ccc2c(c1)C(=O)[C@@](Nc1ccc(C=O)cc1)(OC)[C@@](OC)(c1ccc([N+](=O)[O-])cc1)O2 | > 200 µM | 85.1 µM | 
O=C(NCC(C(=O)OCc1ccccc1)C(=O)OCc1ccccc1)OCc1ccccc1 | > 200 µM | 63.1 µM | 
COCOc1c(OC)c(C2(O)C(=O)N(C)c3ccccc32)c(OCOC)c(OC)c1C1(O)C(=O)N(C)c2ccccc21 (stereo unspecified) | > 200 µM | 42.7 µM | 
CCOC(=O)Cc1nc2cc(F)c(F)cc2[nH]c1=O | > 200 µM | > 200 µM | 
CCOc1ccc(NC(=O)C2=C(C)NC(C)=C(C(=O)Nc3ccc(OCC)cc3)C2c2ccccc2)cc1 | > 36.3 µM | > 36.3 µM | 
O=C1C2=Cc3ccccc3OC2(O)Oc2cc3ccccc3cc21 (stereo unspecified) | > 200 µM | 69.2 µM | 
C(=NCCSSCCN=Cc1ccccc1)c1ccccc1 | > 200 µM | 38.9 µM | 
CCOc1ccncc1[N+](=O)[O-] | > 200 µM | > 200 µM | 
COc1cc(C(C)O)c[n+](CCC2CNc3ccccc32)c1 (stereo unspecified) | > 219 µM | 195 µM | 
O=C1CCCCC(=O)OC2(CCCCC2=O)CC1 (stereo unspecified) | > 200 µM | > 200 µM | 
N=c1oc2ccc([N+](=O)[O-])cc2cc1C(=O)NCc1ccccc1 | > 200 µM | 14.1 µM | 
S=c1c2cn[nH]c2nc2scc(-c3ccc(Cl)cc3)n12 | > 200 µM | 13.2 µM | 
N#Cc1c(N)oc(-c2cccc([N+](=O)[O-])c2)c1C#N | > 200 µM | 10.7 µM | 
O=C1c2cc3c(cc2CC12Cc1ccc4c(c1C2=O)CCC4)CCCC3 (stereo unspecified) | > 200 µM | > 200 µM | 

Structure (SMILES) | EC50 | IC50 | outcome
O=[N+]([O-])c1cccc2nc3ccccc3c(NCCc3ccccn3)c12 | > 2 µM | 0.0631 µM | 
C=C1C(=O)[C@@]23CC1C(O)[C@@H](OC(C)=O)[C@@H]2C1(C)C(OC(C)=O)C[C@@H](OC(C)=O)C(C)(C)[C@@H]1C[C@H]3OC(C)=O (stereo partly specified) | > 200 µM | 0.851 µM | 
c1c[se]c(-c2nc3ccccc3[nH]2)c1 | > 69.2 µM | > 69.2 µM | 
CC1CCC2(NC1)OC1CC3[C@@H]4CC=C5C=CCC[C@]5(C)C4CC[C@]3(C)C1C2C (stereo partly specified) | > 9.55 µM | > 9.55 µM | 
Cc1cc(C)cc(Sc2c([N+](=O)[O-])ncn2C)c1 | > 27.5 µM | 16.2 µM | 
COc1ccc(NC2Oc3cc4c(cc3C(c3cc(OC)c(OC)c(OC)c3)C2C)OCO4)cc1 (stereo unspecified) | > 20 µM | 0.398 µM | 
CCCC/C=C/Cc1[nH]c2ccccc2c(=O)c1C | > 28.2 µM |  | 
N=N/C(=C\c1c(O)[nH]c2ccccc12)c1ccccc1 | > 200 µM | 3.31 µM | 
O=CC[C@H]1C(=O)C[C@@H]2CCC[C@@H]21 | > 794 µM | 44.7 µM | 
CCCCCCCCC1=C(OC)C(=O)c2ccc(COC(C)=O)nc2C1=O |  |  | inactive
C#Cc1cccc(N2C(=O)CC(=P(c3ccccc3)(c3ccccc3)c3ccccc3)C2=O)c1 | > 11.2 µM | > 11.2 µM | 
O=C(CC(NC(=O)OCc1ccccc1)C(=O)NC1Cc2ccccc2C1=O)OCc1ccccc1 (stereo unspecified) | > 200 µM | > 200 µM | 
COC(=O)CP(=O)(OCC(F)(F)F)OCC(F)(F)F | > 794 µM | 437 µM | 
COc1ccccc1N/N=c1/c2n(-c3ccc(Cl)cc3)c(=S)n(-c3ccccn3)c1=NCCN=2 | > 200 µM | > 200 µM | 
O=S1(=O)c2ccccc2C(O)(c2ccccc2)c2ccccc21 | > 200 µM | 123 µM | 
COC(=O)c1cc(C(c2cc(C(=O)OC)c(OC)c(Br)c2C)C(Cl)Cl)c(C)c(Br)c1OC | > 200 µM | 10 µM | 
OC(Cc1ccc2ccccc2n1)(C(F)(F)F)C(F)(F)F | > 200 µM | > 200 µM | 
COC1=CC(=O)[C@H]2[C@H](C)C(c3ccccc3)[C@@]2(C)C1=O (stereo partly specified) | > 933 µM | 603 µM | 
CCCCCCCC(=O)OCC1OC(n2cc(F)c(=O)[nH]c2=O)C(N)C(OC(=O)CCCCCCC)C1O (stereo unspecified) | > 47.9 µM | 38.9 µM | 
CCCC(=O)OCc1cc(=O)n(C)c2c3c4c(cc12)c(C)cc(=O)n4CO3 | > 174 µM | 6.76 µM | 
O=C1OC2C=CC1C1C(=O)OC(=O)C21 (stereo unspecified) | > 200 µM | > 200 µM | 
